Results: ChEMBL document CHEMBL2440076, “New triarylpyrazoles as broad-spectrum anticancer agents: design, synthesis, and biological evaluation” (Eur J Med Chem, 2013)

Tests used:
OVCAR-8 [1] = test: Growth inhibition of human OVCAR8 cells assessed as cell growth at 10 uM after 48 hrs by sulforhodamine B assay; format: functional; details: OVCAR-8, 48 h, read-out: Activity
COLO 205 = test: Growth inhibition of human COLO205 cells assessed as cell growth at 10 uM after 48 hrs by sulforhodamine B assay; format: functional; details: COLO 205, 48 h, read-out: Activity
HT-29 = test: Growth inhibition of human HT-29 cells assessed as cell growth at 10 uM after 48 hrs by sulforhodamine B assay; format: functional; details: HT-29, 48 h, read-out: Activity
NCI-H322M [2] = test: Growth inhibition of human NCI-H322M cells after 48 hrs by sulforhodamine B assay; format: functional
SNB-19 = test: Growth inhibition of human SNB19 cells assessed as cell growth at 10 uM after 48 hrs by sulforhodamine B assay; format: functional; details: SNB-19, 48 h, read-out: Activity
HCT-116 = test: Growth inhibition of human HCT116 cells after 48 hrs by sulforhodamine B assay; format: functional; details: HCT-116, 48 h
ACHN = test: Growth inhibition of human ACHN cells after 48 hrs by sulforhodamine B assay; format: functional
UACC-62 = test: Growth inhibition of human UACC62 cells after 48 hrs by sulforhodamine B assay; format: functional; details: UACC-62, 48 h
K562 = test: Growth inhibition of human K562 cells assessed as cell growth at 10 uM after 48 hrs by sulforhodamine B assay; format: functional; details: K562, 48 h, read-out: Activity
KM12 = test: Growth inhibition of human KM12 cells after 48 hrs by sulforhodamine B assay; format: functional, cell-based; details: KM12, 48 h
M14 = test: Growth inhibition of human M14 cells assessed as cell growth at 10 uM after 48 hrs by sulforhodamine B assay; format: functional; details: M14, 48 h, read-out: Activity
MDA-MB-231 = test: Growth inhibition of human MDA-MB-231 cells assessed as cell growth at 10 uM after 48 hrs by sulforhodamine B assay; format: functional; details: MDA-MB-231, 48 h, read-out: Activity
SR = test: Growth inhibition of human SR cells after 48 hrs by sulforhodamine B assay; format: functional
786-0 = test: Growth inhibition of human 786-0 cells after 48 hrs by sulforhodamine B assay; format: functional; details: 786-0, 48 h
[3] = Growth inhibition of human HCC2998 cells after 48 hrs by sulforhodamine B assay; format: functional; details: HCC 2998, 48 h
MDA-MB-468 = test: Growth inhibition of human MDA-MB-468 cells after 48 hrs by sulforhodamine B assay; format: functional, cell-based; details: MDA-MB-468, 48 h
HOP-92 = test: Growth inhibition of human HOP92 cells assessed as cell growth at 10 uM after 48 hrs by sulforhodamine B assay; format: functional; details: HOP-92, 48 h, read-out: Activity
HCT-15 = test: Growth inhibition of human HCT15 cells after 48 hrs by sulforhodamine B assay; format: functional; details: HCT-15, 48 h
OVCAR-8 [4] = test: Growth inhibition of human OVCAR8 cells after 48 hrs by sulforhodamine B assay; format: functional; details: OVCAR-8, 48 h
SW-620 = test: Growth inhibition of human SW620 cells after 48 hrs by sulforhodamine B assay; format: functional; details: SW-620, 48 h
SF-539 [5] = test: Growth inhibition of human SF539 cells after 48 hrs by sulforhodamine B assay; format: functional; details: SF-539, 48 h
DU-145 [6] = test: Growth inhibition of human DU145 cells assessed as cell growth at 10 uM after 48 hrs by sulforhodamine B assay; format: functional; details: DU-145, 48 h, read-out: Activity
OVCAR-5 = test: Growth inhibition of human OVCAR5 cells assessed as cell growth at 10 uM after 48 hrs by sulforhodamine B assay; format: functional; details: OVCAR-5, 48 h, read-out: Activity
UACC-257 = test: Growth inhibition of human UACC257 cells after 48 hrs by sulforhodamine B assay; format: functional; details: UACC-257, 48 h
A549 = test: Growth inhibition of human A549/ATCC cells after 48 hrs by sulforhodamine B assay; format: functional; details: A549, 48 h
SK-MEL-28 = test: Growth inhibition of human SK-MEL-28 cells assessed as cell growth at 10 uM after 48 hrs by sulforhodamine B assay; format: functional; details: SK-MEL-28, 48 h, read-out: Activity
MCF7 = test: Growth inhibition of human MCF7 cells assessed as cell growth at 10 uM after 48 hrs by sulforhodamine B assay; format: functional; details: MCF7, 48 h, read-out: Activity
SF-539 [7] = test: Growth inhibition of human SF539 cells assessed as cell growth at 10 uM after 48 hrs by sulforhodamine B assay; format: functional; details: SF-539, 48 h, read-out: Activity
[8] = Growth inhibition of human NCI-ADR-RES cells assessed as cell growth at 10 uM after 48 hrs by sulforhodamine B assay; format: functional; details: read-out: Activity
DU-145 [9] = test: Growth inhibition of human DU145 cells after 48 hrs by sulforhodamine B assay; format: functional; details: DU-145, 48 h
U-251 = test: Growth inhibition of human U251 cells after 48 hrs by sulforhodamine B assay; format: functional; details: U-251, 48 h
NCI-H322M [10] = test: Growth inhibition of human NCI-H322M cells assessed as cell growth at 10 uM after 48 hrs by sulforhodamine B assay; format: functional; details: read-out: Activity
OVCAR-3 = test: Growth inhibition of human OVCAR3 cells assessed as cell growth at 10 uM after 48 hrs by sulforhodamine B assay; format: functional; details: OVCAR-3, 48 h, read-out: Activity
UO-31 = test: Growth inhibition of human UO31 cells after 48 hrs by sulforhodamine B assay; format: functional; details: UO-31, 48 h
[11] = read-out: LC50 (the source's name)

COc1cc(-c2nn(-c3cccc(NC(=O)c4ccc(Cl)c(C(F)(F)F)c4)c3)cc2-c2ccncc2)ccc1Cl
growth at 10 µM (OVCAR-8 [1]): 38.9%
growth at 10 µM (COLO 205): 69.4%
growth at 10 µM (HT-29): 50.1%
GI50 (NCI-H322M [2]): 12.8 µM
TGI (NCI-H322M [2]): > 32.5 µM
CC50 (NCI-H322M [2]; [11]): > 32.5 µM
growth at 10 µM (SNB-19): 66%
GI50 (HCT-116): 2490 nM
TGI (HCT-116): > 32.5 µM
CC50 (HCT-116; [11]): > 32.5 µM
GI50 (ACHN): 2730 nM
TGI (ACHN): > 32.5 µM
CC50 (ACHN; [11]): > 32.5 µM
GI50 (UACC-62): 2100 nM
LC50 (50% lethal concentration) (UACC-62): > 32.5 µM
TGI (UACC-62): > 32.5 µM
growth at 10 µM (K562): 8.65%
GI50 (KM12): 2060 nM
TGI (KM12): > 32.5 µM
CC50 (KM12; [11]): > 32.5 µM
growth at 10 µM (M14): 26.2%
growth at 10 µM (MDA-MB-231): 25.8%
GI50 (SR): 848 nM
TGI (SR): > 32.5 µM
CC50 (SR; [11]): > 32.5 µM
GI50 (786-0): 11 µM
TGI (786-0): > 32.5 µM
CC50 (786-0; [11]): > 32.5 µM
GI50 [3]: 7.86 µM
TGI [3]: > 32.5 µM
CC50 [3, 11]: > 32.5 µM
GI50 (MDA-MB-468): 3.69 µM
IC50 (MDA-MB-468): 3.69 µM
TGI (MDA-MB-468): > 32.5 µM
CC50 (MDA-MB-468; [11]): > 32.5 µM
growth at 10 µM (HOP-92): 22.5%
GI50 (HCT-15): 3.25 µM
LC50 (HCT-15): > 32.5 µM
TGI (HCT-15): > 32.5 µM
GI50 (OVCAR-8 [4]): 3.35 µM
TGI (OVCAR-8 [4]): > 32.5 µM
CC50 (OVCAR-8 [4]; [11]): > 32.5 µM
GI50 (SW-620): 4.75 µM
TGI (SW-620): > 32.5 µM
CC50 (SW-620; [11]): > 32.5 µM
GI50 (SF-539 [5]): 4.13 µM
LC50 (concentration killing 50% of cells) (SF-539 [5]): > 32.5 µM
TGI (SF-539 [5]): 20.3 µM
growth at 10 µM (DU-145 [6]): 65.4%
growth at 10 µM (OVCAR-5): 91.3%
GI50 (UACC-257): 7.13 µM
TGI (UACC-257): > 32.5 µM
CC50 (UACC-257; [11]): > 32.5 µM
GI50 (A549): 2400 nM
LC50 (concentration killing 50% of starting cells) (A549): > 32.5 µM
TGI (A549): > 32.5 µM
growth at 10 µM (SK-MEL-28): 41.6%
growth at 10 µM (MCF7): 37.6%
growth at 10 µM (SF-539 [7]): 33%
growth at 10 µM [8]: 13.4%
GI50 (DU-145 [9]): 6.39 µM
LC50 (DU-145 [9]): > 32.5 µM
TGI (DU-145 [9]): > 32.5 µM
GI50 (U-251): 3.1 µM
LC50 (concentration killing 50% of cells) (U-251): > 32.5 µM
TGI (U-251): > 32.5 µM
growth at 10 µM (NCI-H322M [10]): 84.9%
growth at 10 µM (OVCAR-3): 19.5%
GI50 (UO-31): 267 nM
TGI (UO-31): > 32.5 µM
CC50 (UO-31; [11]): > 32.5 µM
